Results from patent publication US9556165B2 (priority 2012, dated 2017).
≈ marks a conversion by molar mass, not a printed value. Read-outs that look alike come from different tables or passages of the source.

Legend:
Format in all cases: cell-based
E. coli ATCC25922 = assay: MIC determination, broth microdilution (CLSI); settings: for MIC: Escherichia coli, ATCC25922, strain 1
K. pneumoniae 60 = assay: MIC determination, broth microdilution (CLSI); settings: for MIC: Klebsiella pneumoniae, 60, strain 2
C. freundii K21/3034 = assay: MIC determination, broth microdilution (CLSI); settings: for MIC: Citrobacter freundii, K21/3034, strain 4
S. pneumoniae 113 = assay: MIC determination, broth microdilution (CLSI); settings: Streptococcus pneumoniae, 113, strain 13; broth microdilution; read-out: MIC strain 13 (S. pneumoniae 113)
S. aureus 133 = assay: MIC determination, broth microdilution (CLSI)
A. baumannii ATCC15308 = assay: MIC determination, broth microdilution (CLSI); settings: for MIC: Acinetobacter baumannii, ATCC15308, strain 9
H. influenzae ATCC 49247 = assay: MIC determination, broth microdilution (CLSI); settings: Haemophilus influenzae, ATCC49247, strain 12; broth microdilution; read-out: MIC strain 12 (H. influenzae ATCC 49247)
P. aeruginosa PAO1 = assay: MIC determination, broth microdilution (CLSI); settings: for MIC: Pseudomonas aeruginosa, PAO1, strain 6
S. maltophilia ICB7569 = assay: MIC determination, broth microdilution (CLSI); settings: for MIC: Stenotrophomonas maltophilia, ICB7569, strain 10
[1] = system: P. aeruginosa 2297 (AmpC wt); assay: MIC determination, broth microdilution (CLSI); settings: for MIC: Pseudomonas aeruginosa, strain 7
Bacteria = assay: MIC determination in combination with β-lactamase inhibitors (constant 4 μg/mL)
E. cloacae 34654 = assay: MIC determination, broth microdilution (CLSI); settings: for MIC: Enterobacter cloacae, 34654, strain 3
B. fragilis 6688 = assay: MIC determination, broth microdilution (CLSI); settings: Bacteroides fragilis, 6688, strain 15; broth microdilution; read-out: MIC strain 15 (B. fragilis 6688)
E. coli J62 = assay: MIC determination, broth microdilution (CLSI); settings: broth microdilution; for MIC: Escherichia coli, J62, strain 17, read-out: MIC strain 17 (E. coli J62)
M. morganii 126/3048 = assay: MIC determination, broth microdilution (CLSI); settings: for MIC: Morganella morganii, 126/3048, strain 5
E. coli J62-TEM-3 = assay: MIC determination, broth microdilution (CLSI); settings: broth microdilution; for MIC: Escherichia coli, J62TEM3, read-out: MIC strain 18 (E. coli J62-TEM-3), strain 18
[2] = system: P. aeruginosa 2297-con (AmpC derepressed); assay: MIC determination, broth microdilution (CLSI); settings: for MIC: Pseudomonas aeruginosa, read-out: strain 8 MIC, strain 8
[3] = Staphylococcus aureus, 133, strain 11, read-out: strain 11 MIC
[4] = Staphylococcus aureus, 133, strain 14, broth microdilution, read-out: MIC strain 14 (S. aureus 133)

SMILES | MIC (E. coli ATCC25922) | MIC (K. pneumoniae 60) | MIC (C. freundii K21/3034) | MIC (S. pneumoniae 113) | MIC (S. aureus 133; [3]) | MIC (S. aureus 133; [4]) | MIC (A. baumannii ATCC15308) | MIC (H. influenzae ATCC 49247) | MIC (P. aeruginosa PAO1) | MIC (S. maltophilia ICB7569) | MIC [1] | MIC strain 19 (E. coli J62-TEM-3 + 4 μg/mL clavulanic acid) (Bacteria) | MIC strain 20 (E. coli J62-TEM-3 + 4 μg/mL sulbactam) (Bacteria) | MIC strain 21 (E. coli J62-TEM-3 + 4 μg/mL tazobactam) (Bacteria) | MIC (E. cloacae 34654) | MIC (E. coli J62) | MIC (M. morganii 126/3048) | MIC (E. coli J62-TEM-3) | MIC [2] | other results
C[C@H]1[C@H](NC(=O)/C(=N\OCCOc2ccc(C(=N)NNC=O)cc2)c2csc(N)n2)C(=O)N1S(=O)(=O)O [Example 63, (2S,3S)-3-({(2Z)-2-(2-Amino-1,3-thiazol-4-yl)-2-[(2-{4-[(2-formylhydrazinyl)(imino)methyl]phenoxy}ethoxy)imino]acetyl}amino)-2-methyl-4-oxoazetidine-1-sulfonic acid] | 0.5 µg/mL (≈ 0.902 µM) | 0.25 µg/mL (≈ 0.451 µM) | 0.25 µg/mL (≈ 0.451 µM) | 0.5 µg/mL (≈ 0.902 µM) | 0.5 µg/mL (≈ 0.902 µM) | 16 µg/mL (≈ 28.9 µM) | 16 µg/mL (≈ 28.9 µM) | 0.125 µg/mL (≈ 0.225 µM) | 8 µg/mL (≈ 14.4 µM) | 16 µg/mL (≈ 28.9 µM) | 8 µg/mL (≈ 14.4 µM) | 0.25 µg/mL | 0.5 µg/mL | 0.5 µg/mL | 0.5 µg/mL (≈ 0.902 µM) | 0.5 µg/mL (≈ 0.902 µM) | 0.5 µg/mL (≈ 0.902 µM) | 8 µg/mL (≈ 14.4 µM) |  | MIC (B. fragilis 6688): 16 µg/mL (≈ 28.9 µM)
CC1(C)[C@H](NC(=O)/C(=N\O[C@@H](COc2ccc(C(=N)N[C@H]3CCNC3)cc2)C(=O)O)c2csc(N)n2)C(=O)N1OS(=O)(=O)O [Example 93] | ≤ 0.063 µg/mL | 0.125 µg/mL (≈ 0.191 µM) | ≤ 0.063 µg/mL |  |  | 32 µg/mL (≈ 48.9 µM) | 1 µg/mL (≈ 1.53 µM) |  | 1 µg/mL (≈ 1.53 µM) | 4 µg/mL (≈ 6.11 µM) | 1 µg/mL (≈ 1.53 µM) | 0.125 µg/mL | 0.125 µg/mL | 0.125 µg/mL | 0.125 µg/mL (≈ 0.191 µM) | 0.125 µg/mL (≈ 0.191 µM) |  | 4 µg/mL (≈ 6.11 µM) | 1 µg/mL (≈ 1.53 µM) | 
CC1(C)[C@H](NC(=O)/C(=N\OC(CO)COc2ccc(C(=N)N)cc2)c2csc(N)n2)C(=O)N1OS(=O)(=O)O (mixture of isomers) [Example 45A, (2Z)-2-(2-Amino-1,3-thiazol-4-yl)-2-({[(2R and 2S)-1-(4-carbamimidoylphenoxy)-3-hydroxypropan-2-yl]oxy}imino)-N-[(3S)-2,2-dimethyl-4-oxo-1-(sulfooxy)azetidin-3-yl]ethanamide] |  |  |  |  |  | 8 µg/mL | 2 µg/mL |  | 8 µg/mL |  | 16 µg/mL | 0.5 µg/mL | 0.5 µg/mL | 0.5 µg/mL |  |  |  |  |  | strain 1 MIC (E. coli ATCC25922): 0.5 µg/mL; strain 2 MIC (K. pneumoniae 60): 0.5 µg/mL; strain 4 MIC (C. freundii K21/3034): 0.25 µg/mL; strain 8 MIC [2]: 8 µg/mL; strain 10 MIC (S. maltophilia ICB7569): 8 µg/mL; strain 3 MIC (E. cloacae 34654): 1 µg/mL; MIC strain 17 (E. coli J62) (E. coli J62): 0.5 µg/mL; strain 5 MIC (M. morganii 126/3048; strain 5): 0.5 µg/mL; MIC strain 18 (E. coli J62-TEM-3) (E. coli J62-TEM-3): 1 µg/mL
CC1(C)[C@H](NC(=O)/C(=N\OC(COc2ccc(C(=N)N)cc2)C(N)=O)c2csc(N)n2)C(=O)N1OS(=O)(=O)O (stereo partly drawn) [Example 75, 2-({[(1Z)-1-(2-Amino-1,3-thiazol-4-yl)-2-{[(3S)-2,2-dimethyl-4-oxo-1-(sulfooxy)azetidin-3-yl]amino}-2-oxoethylidene]amino}oxy)-3-(4-carbamimidoylphenoxy)propanamide] | 0.25 µg/mL (≈ 0.428 µM) | 0.5 µg/mL (≈ 0.855 µM) | 0.125 µg/mL (≈ 0.214 µM) |  |  | 16 µg/mL (≈ 27.4 µM) | 2 µg/mL (≈ 3.42 µM) |  | 8 µg/mL (≈ 13.7 µM) | 4 µg/mL (≈ 6.84 µM) | 16 µg/mL (≈ 27.4 µM) | 0.25 µg/mL | 0.5 µg/mL | 0.5 µg/mL | 0.5 µg/mL (≈ 0.855 µM) | 0.5 µg/mL (≈ 0.855 µM) | 0.25 µg/mL (≈ 0.428 µM) | 1 µg/mL (≈ 1.71 µM) | 8 µg/mL (≈ 13.7 µM) | 
CC1(C)[C@H](NC(=O)/C(=N\O[C@@H](COc2ccc(C(=N)NC3CC3N)cc2)C(=O)O)c2csc(N)n2)C(=O)N1OS(=O)(=O)O (single isomer, unassigned) [Example 100B] |  |  |  |  |  |  |  |  |  |  |  | 2 µg/mL | 2 µg/mL | 2 µg/mL |  |  |  |  |  | strain 1 MIC (E. coli ATCC25922): 2 µg/mL; strain 2 MIC (K. pneumoniae 60): 2 µg/mL; strain 4 MIC (C. freundii K21/3034): 2 µg/mL; strain 8 MIC [2]: 16 µg/mL; strain 9 MIC (A. baumannii ATCC15308; strain 9): 32 µg/mL; strain 6 MIC (P. aeruginosa PAO1; strain 6): 16 µg/mL; strain 10 MIC (S. maltophilia ICB7569): 32 µg/mL; strain 7 MIC [1]: 32 µg/mL; strain 3 MIC (E. cloacae 34654): 4 µg/mL; MIC strain 17 (E. coli J62) (E. coli J62): 4 µg/mL (≈ 6.24 µM); MIC strain 18 (E. coli J62-TEM-3) (E. coli J62-TEM-3): 16 µg/mL (≈ 25 µM)
C[C@H]1[C@H](NC(=O)/C(=N\OCCOc2ccc(C(=N)NN)cc2)c2csc(N)n2)C(=O)N1S(=O)(=O)O [Example 64, (2S,3S)-3-({(2Z)-2-(2-Amino-1,3-thiazol-4-yl)-2-[(2-{4-[hydrazinyl(imino)methyl]phenoxy}ethoxy)imino]acetyl}amino)-2-methyl-4-oxoazetidine-1-sulfonic acid] | 0.5 µg/mL (≈ 0.95 µM) | 0.25 µg/mL (≈ 0.475 µM) | 0.5 µg/mL (≈ 0.95 µM) | 32 µg/mL (≈ 60.8 µM) | 16 µg/mL (≈ 30.4 µM) | 8 µg/mL (≈ 15.2 µM) | 8 µg/mL (≈ 15.2 µM) | 8 µg/mL (≈ 15.2 µM) | 8 µg/mL (≈ 15.2 µM) | 32 µg/mL (≈ 60.8 µM) | 16 µg/mL (≈ 30.4 µM) | 1 µg/mL | 1 µg/mL | 2 µg/mL | 0.5 µg/mL (≈ 0.95 µM) | 1 µg/mL (≈ 1.9 µM) | 0.5 µg/mL (≈ 0.95 µM) | 32 µg/mL (≈ 60.8 µM) |  | 
C[C@H]1[C@H](NC(=O)/C(=N\OCCOc2cc(C(=N)N)nn2C)c2csc(N)n2)C(=O)N1S(=O)(=O)O [Example 71, (2S,3S)-3-{[(2Z)-2-(2-Amino-1,3-thiazol-4-yl)-2-({2-[(3-carbamimidoyl-1-methyl-1H-pyrazol-5-yl)oxy]ethoxy}imino)acetyl]amino}-2-methyl-4-oxoazetidine-1-sulfonic acid] | 2 µg/mL (≈ 3.88 µM) | 1 µg/mL (≈ 1.94 µM) | 1 µg/mL (≈ 1.94 µM) | 0.5 µg/mL (≈ 0.97 µM) | 0.25 µg/mL (≈ 0.485 µM) |  | 4 µg/mL (≈ 7.76 µM) | 1 µg/mL (≈ 1.94 µM) | 16 µg/mL (≈ 31 µM) | 4 µg/mL (≈ 7.76 µM) | 32 µg/mL (≈ 62.1 µM) | 2 µg/mL | 4 µg/mL | 4 µg/mL | 4 µg/mL (≈ 7.76 µM) | 8 µg/mL (≈ 15.5 µM) | 1 µg/mL (≈ 1.94 µM) | 32 µg/mL (≈ 62.1 µM) |  | MIC (B. fragilis 6688): 8 µg/mL (≈ 15.5 µM)
CC1(C)[C@H](NC(=O)/C(=N\OCCOc2ccc(C(=N)N3CCNCC3)cc2)c2csc(N)n2)C(=O)N1OS(=O)(=O)O [Example 80, (2Z)-2-(2-Amino-1,3-thiazol-4-yl)-N-[(3S)-2,2-dimethyl-4-oxo-1-(sulfooxy)azetidin-3-yl]-2-[(2-{4-[imino(piperazin-1-yl)methyl]phenoxy}ethoxy)imino]ethanamide] | 0.25 µg/mL (≈ 0.409 µM) | 0.5 µg/mL (≈ 0.819 µM) | 0.25 µg/mL (≈ 0.409 µM) |  |  | 4 µg/mL (≈ 6.55 µM) | 2 µg/mL (≈ 3.28 µM) |  | 16 µg/mL (≈ 26.2 µM) | 32 µg/mL (≈ 52.4 µM) | 16 µg/mL (≈ 26.2 µM) | 0.5 µg/mL | 0.5 µg/mL | 0.5 µg/mL | 1 µg/mL (≈ 1.64 µM) | 0.5 µg/mL (≈ 0.819 µM) |  | 16 µg/mL (≈ 26.2 µM) | 8 µg/mL (≈ 13.1 µM) | 
